Source: US10211534B2, “Sildenafil solutions and methods of making and using same” (priority 2014, dated 2019)
Counter-ions that a name gives are not always drawn. Like-named read-outs stand apart in the source and are kept apart here.

Tests used:
[1] = tablets or oral suspension; cited from earlier work
[2] = spectrophotometric analysis at 228 nm before and after filtration via a 0.22 micron filter (Example 12); assay type: physicochemical; details: at 18 mg/ml in 70% ethanol
Description: A UV-VIS Genesys 10S Thermo Scientific spectrophotometer was used for the assay. Samples were placed in a UV Kurette Halbmicro/UV Cuvette semi micro [Cat no: 759150] for reading.
Because the reference describes measurements at μg/ml concentrations, both the filtered and unfiltered 18 mg/ml solutions were diluted to 9 μg/ml and 12.5 μg/ml and measured again.

[3] = cited from earlier work
[4] = solubility of sildenafil citrate in EtOH/water mixtures with and without acetone (Example 1); assay type: physicochemical; details: Table 1; sildenafil citrate remaining in solution after heating
[5] = EMEA CHMP Assessment Report For Vizarsin
[6] = Jordanian Pharmaceutical Manufacturing Co.

For `CCCc1nn(C)c2c(=O)[nH]c(-c3cc(S(=O)(=O)N4CCN(C)CC4)ccc3OCC)nc12` [sildenafil citrate], the absolute bioavailability [1] is listed as “about 41%”, the “solubility as prepared in Example 1” value [2] is listed as “fully soluble” and the solubility in acetone [3, 5] is listed as “insoluble”. For the same molecule, the solubility in chloroform [3, 5] was “insoluble”, the “solubility in dimethylsulfoxide (DMSO)” value [3, 5] was “soluble” and the solubility in ethanol [3, 5] was “insoluble”. For the same molecule, the solubility in methanol [3, 5] was “soluble”, the solubility in ethanol [3, 6] was about 1000 µg/mL and the “times less soluble in ethanol than in water” value [3, 6] was “about 3.5 times”. The “Final conc. (After heating)” value [4] was at most 35.7 mg/mL.
